In US9487553B2, “Boranophosphate analogues of cyclic nucleotides” (BIOLOG LIFE SCIENCE INSTITUTE FORSCHUNGSLABOR UND …, priority 2011, dated 2016):
Several values for one entry are separate records, joined by “and”; a condition that tells them apart may be missing. Equal values may be shown once. Values belong to the molecule of their own block, whether it stands above or below them.

How the values were obtained:
[1] = Degradation Example 2: oxidation with hydrogen peroxide, monitored by HPLC; format: physicochemical
Experimental: Thus, 0.05 μmol of the Rp-isomer of 8-(4-chlorophenylthio)adenosine-3′,5′-cyclic boranophosphate (Rp-8-pCPT-cAMPB, example 9), was treated stepwise with 5 μl portions of 30% aqueous hydrogen peroxide solution (Merck) every 30 min. The oxidation process was monitored by reversed phase HPLC (RP-18, 25 Vol.-% acetonitrile, 20 mM triethylammonium formate buffer, pH 6.1, 2 ml/min, UV 280 nm). As a control the corresponding cyclic nucleotide with phosphorothioate modification (Sp-8-pCPT-cAMPS, Biolog) was added. In summary, 15 μl peroxide, were applied.

[2] = Degradation Example 5: oxidation with hydrogen peroxide, monitored by HPLC; format: physicochemical; conditions: after 1 hour at RT
Experimental: Thus, the cyclic boranophosphate 6-chloropurine-1-β-D-ribofuranoside-3′,5′-cyclic boranophosphate, Rp-isomer (Rp-6-Cl-cPuMPB, example 42) together with the corresponding phosphorothioate 6-chloropurine-1-β-D-ribofuranoside-3′,5′-cyclic phosphorothioate, Sp-isomer (Sp-6-Cl-cPuMPS, Biolog) as a control were treated repeatedly with μl doses of 30% aqueous hydrogen peroxide (Merck). During one hour, oxidative degradation was monitored by HPLC (RP-18, 15 Vol.-% acetonitrile, 20 mM triethylammonium formate buffer, pH 6.5, 2 ml/min., UV 263 nm) and corresponding peak areas were recorded, integrated and compared (Tab. 3).

[3] = Degradation Example 3: oxidation with hydrogen peroxide, monitored by HPLC; format: physicochemical; conditions: after 90 min. at RT
Experimental: Thus, 0.1 μmol of the Rp-isomer of 8-(4-chlorophenylthio)-2′-O-methyladenosine-3′,5′-cyclic boranophosphate (Rp-8-pCPT-2′-O-Me-cAMPB, example 44), dissolved in 300 μl of water, was treated stepwise with 2 μl portions of 30% aqueous hydrogen peroxide solution (Merck). The oxidation process was monitored again by reversed phase HPLC (RP-18, 30 Vol.-% acetonitrile, 20 mM triethylammonium formate buffer, pH 8.3, 2 ml/min, UV 282 nm). As a control, the corresponding cyclic nucleotide with phosphorothioate modification (Sp-8-pCPT-2′-O-Me-cAMPS, Biolog) was added. In summary, 20 μl peroxide, were applied.

PDE IV (A4B) = target: T1, PDE IV (A4B) (Homo sapiens, UniProt P27815); test: Stability against PDE IV, HPLC; format: in vitro ADME; conditions: human, Houslay lab), pH 7.2, read-out: half life of hydrolysis
T1 construct: Houslay lab, Glasgow/Scotland (obtained from another laboratory)
T1 sequence (P27815 whole entry): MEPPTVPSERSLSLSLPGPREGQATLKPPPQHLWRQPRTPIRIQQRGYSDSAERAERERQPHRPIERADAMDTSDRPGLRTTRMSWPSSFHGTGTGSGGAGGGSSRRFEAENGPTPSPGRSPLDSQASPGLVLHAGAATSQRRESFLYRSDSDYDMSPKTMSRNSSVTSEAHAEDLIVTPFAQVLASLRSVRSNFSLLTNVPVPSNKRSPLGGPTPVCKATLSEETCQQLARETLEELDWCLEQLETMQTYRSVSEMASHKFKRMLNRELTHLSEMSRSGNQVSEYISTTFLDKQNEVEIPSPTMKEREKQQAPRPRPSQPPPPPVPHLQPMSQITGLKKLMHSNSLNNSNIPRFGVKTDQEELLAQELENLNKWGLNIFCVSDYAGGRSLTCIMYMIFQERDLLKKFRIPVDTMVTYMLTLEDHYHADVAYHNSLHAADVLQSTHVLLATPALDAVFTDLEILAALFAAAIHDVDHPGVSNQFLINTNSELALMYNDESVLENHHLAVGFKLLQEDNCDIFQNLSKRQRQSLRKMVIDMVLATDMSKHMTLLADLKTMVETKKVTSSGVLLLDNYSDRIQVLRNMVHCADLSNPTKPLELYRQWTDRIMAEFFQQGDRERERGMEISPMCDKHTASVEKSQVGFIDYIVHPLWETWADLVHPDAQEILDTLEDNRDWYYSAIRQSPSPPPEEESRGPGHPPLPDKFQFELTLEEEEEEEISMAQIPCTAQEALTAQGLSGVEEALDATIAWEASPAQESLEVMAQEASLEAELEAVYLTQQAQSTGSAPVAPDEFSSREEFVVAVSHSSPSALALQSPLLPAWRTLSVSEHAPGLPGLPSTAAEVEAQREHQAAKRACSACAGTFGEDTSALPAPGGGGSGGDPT
Experimental: Next, stability of the disclosed boranophosphates against PDE IV (A4B, Houslay lab, Glasgow/Scotland) was tested in similar experiments as described above.

[4] = Degradation Example 7: oxidation with hydrogen peroxide, monitored by HPLC; format: physicochemical; conditions: for oxidation by peroxide: 5 portions of 30% H2O2; for HPLC Area %: hydrogen peroxide
Experimental: The degradation experiment was monitored by HPLC (RP-18, 15 Vol.-% acetonitrile, 20 mM triethylammonium formate buffer, pH 6.5, 1 ml/min., UV 270 nm) and peak areas were recorded.

[5] = target: protein kinase A type I alpha holoenzyme (Homo sapiens, UniProt P10644); test: Standard photometric (Cook) assay with protein kinase A type I alpha holoenzyme; format: biochemical; conditions: holoenzyme RIα
Sequence of protein kinase A type I alpha holoenzyme (P10644 whole entry): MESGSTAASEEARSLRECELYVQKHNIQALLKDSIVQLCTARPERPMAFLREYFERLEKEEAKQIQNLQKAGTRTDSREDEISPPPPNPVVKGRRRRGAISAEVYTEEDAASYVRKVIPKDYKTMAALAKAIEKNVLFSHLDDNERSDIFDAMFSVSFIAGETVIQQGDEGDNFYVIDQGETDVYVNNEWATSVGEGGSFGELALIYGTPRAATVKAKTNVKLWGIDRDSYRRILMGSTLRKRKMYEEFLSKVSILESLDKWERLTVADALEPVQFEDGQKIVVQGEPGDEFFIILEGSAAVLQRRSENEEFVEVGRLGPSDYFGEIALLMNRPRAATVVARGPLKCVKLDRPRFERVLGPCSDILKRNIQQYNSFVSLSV
Excerpt: In a first experiment, the biological activity of the Rp- and Sp-isomer of 8-bromoadenosine-3′,5′-cyclic boranophosphate (examples 1 and 2) has been tested with the holoenzyme of protein kinase A type I alpha (FIGS. 3 and 4) using a standard photometric assay (Cook, P. F.; Neville, M. E., Jr.; Vrana, K. E.; Hartl, F. T. and Roskoski, R., Jr., Biochemistry 21, 5794-5799 (1982)).
As a control, two boranophosphate analogues with a 2′-O-methyl modification (Rp-2′-O-Me-cAMPB and Sp-2′-O-Me-cAMPB, examples 7 & 8) have been tested by the same type of assay with protein kinase A type I alpha as well.
FIG. 5 depicts the activity overview of four different cyclic boranophosphate analogues with protein kinase A type I alpha holoenzyme. 9108: Sp-2′-O-Me-cAMPB; 9109: Rp-2′-O-Me-cAMPB; 9110: Sp-8-Br-cAMPB; 9111: Rp-8-Br-cAMPB; controls: B 001: Rp-8-Br-cAMPS. Control: cAMP. “Cook Assay” with Holoenzyme RIα.

[6] = Degradation Example 1: oxidation with hydrogen peroxide, monitored by HPLC; format: physicochemical; conditions: after further addition of 10 μl of 30% H2O2, two hours at RT
Excerpt: In order to check out the stability of the boranophosphates described in this invention towards oxidising conditions in comparison to the corresponding phosphorothioates, 0.1 μmol of the sodium salts of each, Rp-8-bromoadenosine-3′,5′-cyclic boranophosphate (Rp-8-Br-cAMPB, example 1), Sp-8-bromoadenosine-3′,5′-cyclic boranophosphate (Sp-8-Br-cAMPB, example 2), Rp-8-bromoadenosine-3′,5′-cyclic phosphorothioate (Rp-8-Br-cAMPS, Biolog) and Sp-8-bromoadenosine-3′,5′-cyclic phosphorothioate (Sp-8-Br-cAMPS, Biolog) were dissolved in 100 μl of eluent and the mixture was analyzed by HPLC (RP-18, 11% acetonitrile, 20 mM triethylammonium formate buffer, pH 6.1, 1.5 ml/min, UV 258 nm). The following elution profile was recorded: Rp-8-Br-cAMPS (5:13 min.)<Sp-8-Br-cAMPS (7:23 min.)<Sp-8-Br-cAMPB (9:13 min.)<Rp-8-Br-cAMPB ([…].).
Subsequently, aqueous hydrogen peroxide (Merck) was added in small portions while the stability of the four compounds was permanently monitored over time.
10 μl of H2O2 (0.3%) as well as 10 μl of 3% H2O2 were added to no effect.

protein kinase G I α = target: T2, protein kinase G I α (Homo sapiens, UniProt Q13976); test: Protein kinase G I alpha activation, phosphotransferyl assay; format: biochemical; conditions: 10 nM, 100 nM and 1 μM
T2 sequence (Q13976 1-671): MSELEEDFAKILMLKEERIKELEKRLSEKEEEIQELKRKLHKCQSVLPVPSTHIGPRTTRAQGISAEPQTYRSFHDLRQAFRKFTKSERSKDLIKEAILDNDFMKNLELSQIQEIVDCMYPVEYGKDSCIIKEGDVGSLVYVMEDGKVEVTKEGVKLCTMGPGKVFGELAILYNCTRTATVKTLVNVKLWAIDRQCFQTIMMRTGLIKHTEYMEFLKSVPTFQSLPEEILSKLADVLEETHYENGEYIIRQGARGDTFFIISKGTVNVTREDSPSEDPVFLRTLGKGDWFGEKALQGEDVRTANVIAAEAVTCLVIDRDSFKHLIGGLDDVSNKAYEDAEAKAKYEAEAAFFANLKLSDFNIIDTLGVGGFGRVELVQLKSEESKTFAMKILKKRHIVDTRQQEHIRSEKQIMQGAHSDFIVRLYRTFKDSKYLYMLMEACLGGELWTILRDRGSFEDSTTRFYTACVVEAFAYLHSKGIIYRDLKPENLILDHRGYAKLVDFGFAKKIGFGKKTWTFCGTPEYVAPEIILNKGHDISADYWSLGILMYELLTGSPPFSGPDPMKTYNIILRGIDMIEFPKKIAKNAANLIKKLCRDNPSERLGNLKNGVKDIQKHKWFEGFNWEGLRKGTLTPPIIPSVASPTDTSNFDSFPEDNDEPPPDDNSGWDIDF
Excerpt: Next, the activity profile of some cyclic boranophosphates disclosed in this invention has also been investigated on protein kinase G I α (FIGS. 8 and 9). Potential activatory potential towards the enzyme has been determined by a standard phosphotransferyl assay protocol according to Dostmann et al. (Dostmann, W. R.; Nickl, C.; Thiel, S.; Tsigelny, I.; Frank, R.; and Tegge, W. J., Pharmacol. Ther., 82, 373-387 (1999). FIG. 8 depicts the activity (μmol×min^−1×mg^−1) overview of six different cyclic boranophosphate analogues with protein kinase G type I at 10 nM, 100 nM and 1 μM. BLG-9108: […]; BLG-9110: Sp-8-Br-cAMPB; BLG-9111: Rp-8-Br-cAMPB; BLG-9112: Sp-8-Br-cGMPB; BLG-9113: Rp-8-Br-cGMPB; control: cyclic GMP.

PDE 1 from bovine heart = test: Resistance towards phosphodiesterase: incubation with PDE 1 from bovine heart, HPLC; conditions: PDE 1, bovine heart
Experimental: For this purpose 0.1 μmol of Rp-8-bromoadenosine-3′,5′-cyclic boranophosphate (example 1) and Sp-8-bromoadenosine-3′,5′-cyclic boranophosphate […] dissolved in TRIS buffer pH 7.2 containing calcium chloride and calmodulin and incubated with PDE type I from bovine brain (Sigma-Aldrich) at 37° C. Activity of the enzyme was checked by hydrolysis of cyclic AMP. Stability was monitored by HPLC (RP-18, 11 Vol.-% propanol-2, 20 mM TEAF buffer, pH 6.8, 1 ml/min., UV 264 nm). […] This strategy of testing PDE performance was applied accordingly in degradation examples 10 and 11.
Thus, Rp-8-Br-cAMPB (example 1) and Sp-8-Br-cAMPS (Biolog, Bremen/Germany) were incubated with PDE 1 from bovine heart (Sigma-Aldrich) and monitored by HPLC as described above.
Rp-2′-O-Me-cAMPB (example 7) and Sp-2′-O-Me-cAMPS (Biolog, Bremen/Germany).

Molecule: Nc1ncnc2c1nc(Sc1ccc(Cl)cc1)n2[C@@H]1O[C@@H]2COP([O-])(=S)O[C@H]2[C@H]1O.[Na+] (stereo partly drawn) [Sp-8-pCPT-cAMPS, reference compound]
HPLC Area % ([1]; Time 0.00 h): 100%
HPLC Area % ([1]; Time 0.50 h): 81.7%
HPLC Area % ([1]; Time 1.00 h): 57.47%
HPLC Area % ([1]; Time 1.50 h, RT): 45.71%
HPLC Area % ([1]; Time 18.00 h): completely vanished
HPLC Area % ([1]; Time 18.00 h, listed as Sp-8-pCPT-CAMPS): 0%
degraded ([1]; after 1.5 hours at RT): more than 50%

Molecule: 6-Chloropurine-1-β-D-ribofuranoside-3′,5′-cyclic boranophosphate, Rp-isomer [Rp-6-Cl-cPuMPB]
peak area, % of the original area [2]: 93%

Molecule: CO[C@H]1C2OP(O)(=S)OC[C@H]2O[C@H]1n1c(Sc2ccc(Cl)cc2)nc2c(N)ncnc21 (stereo partly drawn) [Sp-8-pCPT-2′-O-Me-cAMPS, reference compound]
peak area, % of the original area [3]: completely degraded

peak area, % of the original area [3]: 50%
Molecule: B[PH]1(O)OC[C@H]2O[C@@H](n3c(Sc4ccc(Cl)cc4)nc4c(N)ncnc43)C(OC)[C@@H]2O1 (stereo partly drawn) [Rp-8-pCPT-2′-O-Me-cAMPB, 8-(4-Chlorophenylthio)-2′-O-methyladenosine-3′,5′-cyclic boranophosphate, Rp-isomer]

Molecule: Nc1ncnc2c1ncn2[C@@H]1O[C@@H]2COP(=O)(O)O[C@H]2[C@H]1O [cAMP, cyclic adenosine-3′,5′-monophosphate, reference compound]
half-life (PDE IV (A4B)): 5 min

oxidation by peroxide [4]: considerably higher resistance
HPLC Area % ([4]; Time 0 min): 100%
HPLC Area % ([4]; Time 10 min): 99%
HPLC Area % ([4]; Time 20 min): 98%
HPLC Area % ([4]; Time 34 min): 96%
HPLC Area % ([4]; Time 65 min): 91%
HPLC Area % ([4]; Time 81 min): 84%
HPLC Area % ([4]; Time 92 min): 78%
HPLC Area % ([4]; Time 98 min): 79%
Molecule: B[PH]1(O)OC[C@H]2O[C@@H](n3ccc(N)nc3=O)C(O)[C@@H]2O1 (stereo partly drawn) [Rp-cCMPB, Cytidine-3′,5′-cyclic boranophosphate, Rp-isomer]

Molecule: 2′-O-Methyladenosine-3′,5′-cyclic boranophosphate, Sp-isomer [Sp-2′-O-Me-cAMPB]
effect on protein kinase A type I alpha holoenzyme [5]: neither Rp- nor Sp-2′-O-Me-cAMPB did modulate the kinase in any way

Molecule: Nc1ccn([C@@H]2O[C@@H]3COP(O)(=S)O[C@H]3[C@H]2O)c(=O)n1 (single isomer, unassigned) [Sp-cCMPS, cytidine-3′,5′-cyclic phosphorothioate, Sp-isomer, reference compound]
oxidation by peroxide [4]: rapidly oxidized
HPLC Area % ([4]; Time 0 min): 100%
HPLC Area % ([4]; Time 10 min): 94%
HPLC Area % ([4]; Time 20 min): 85%
HPLC Area % ([4]; Time 34 min): 69%
HPLC Area % ([4]; Time 65 min): 46%
HPLC Area % ([4]; Time 81 min): 23%
HPLC Area % ([4]; Time 92 min): 14%
HPLC Area % ([4]; Time 98 min): 13%

HPLC Area % ([1]; Time 0.00 h): 100%
HPLC Area % ([1]; Time 0.50 h): 87.51%
HPLC Area % ([1]; Time 1.00 h): 82.89%
HPLC Area % ([1]; Time 1.50 h, RT): 79% and 79.25%
HPLC Area % ([1]; Time 18.00 h): 30% and 29.56%
Molecule: B[PH]1(O)OC[C@H]2O[C@@H](n3c(Sc4ccc(Cl)cc4)nc4c(N)ncnc43)C(O)[C@@H]2O1 (stereo partly drawn) [Rp-8-pCPT-cAMPB, 8-(4-Chlorophenylthio)adenosine-3′,5′-cyclic boranophosphate, Rp-isomer]

Molecule: Nc1ncnc2c1nc(Br)n2C1OC2COP(O)(=S)OC2C1O (stereo not drawn) [Rp-8-Br-cAMPS, Rp-8-bromoadenosine-3′,5′-cyclic phosphorothioate, reference compound]
HPLC signal after oxidation [6]: completely vanished

Molecule: O[C@@H]1[C@@H]2OP(O)(=S)OC[C@H]2O[C@H]1n1cnc2c(Cl)ncnc21 (single isomer, unassigned) [Sp-6-Cl-cPuMPS, 6-chloropurine-1-β-D-ribofuranoside-3′,5′-cyclic phosphorothioate, Sp-isomer, reference compound]
degraded [2]: 37%

activation of protein kinase G (protein kinase G I α): activated the kinase
Molecule: 8-Bromoguanosine-3′,5′-cyclic boranophosphate, Rp-isomer [Rp-8-Br-cGMPB]

Molecule: COC1C2OP(O)(=S)OCC2OC1n1cnc2c(N)ncnc21 (stereo not drawn) [Sp-2′-O-Me-cAMPS, reference compound]
half life of degradation (PDE 1 from bovine heart): 1800 min
